# Assay results reported in PubChem BioAssay AID1919013 (Molecular Pharmacology Branch, DTP, NCI, 2023).
# Values joined by “and” are separate entries in the source; they are usually repeats but may differ in a detail not shown here. Equal entries are not always repeated.
# Test system: LG0703-F498-PDC complex spheroid growth
# Test: Anticancer human tumor LG0703-F498-PDC patient-derived lung adenocarcinoma cell line growth inhibition [AhR]
# Settings: for viability, T/C: stronger effect = lower value
# Method in brief: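 Spheroids combined tumor cells with HUVEC endothelial cells and human MSCs as stroma. AhR antagonists were paired with standard or investigational drugs, each dosed in half-log steps down from near clinical Cmax, or from 10 microM where Cmax was unknown.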
# [1] = curve of first compound, second compound 0.1 µM
# [2] = curve of first compound, second compound 0.316 µM
# [3] = curve of first compound, second compound 1 µM
# [4] = curve of first compound, second compound 3.16 µM
# [5] = curve of first compound, second compound 10 µM
# [6] = second compound 0.1 µM, first compound 0.0316 µM
# [7] = second compound 0.1 µM, first compound 0.1 µM
# [8] = second compound 0.1 µM, first compound 0.316 µM
# [9] = second compound 0.1 µM, first compound 1 µM
# [10] = second compound 0.1 µM, first compound 3.16 µM
# [11] = second compound 0.1 µM, first compound 10 µM
# [12] = second compound 0.316 µM, first compound 0.0316 µM
# [13] = second compound 0.316 µM, first compound 0.1 µM
# [14] = second compound 0.316 µM, first compound 0.316 µM
# [15] = second compound 0.316 µM, first compound 1 µM
# [16] = second compound 0.316 µM, first compound 3.16 µM
# [17] = second compound 0.316 µM, first compound 10 µM
# [18] = second compound 1 µM, first compound 0.0316 µM
# [19] = second compound 1 µM, first compound 0.1 µM
# [20] = second compound 1 µM, first compound 0.316 µM
# [21] = second compound 1 µM, first compound 1 µM
# [22] = second compound 1 µM, first compound 3.16 µM
# [23] = second compound 1 µM, first compound 10 µM
# [24] = second compound 3.16 µM, first compound 0.0316 µM
# [25] = second compound 3.16 µM, first compound 0.1 µM
# [26] = second compound 3.16 µM, first compound 0.316 µM
# [27] = second compound 3.16 µM, first compound 1 µM
# [28] = second compound 3.16 µM, first compound 3.16 µM
# [29] = second compound 3.16 µM, first compound 10 µM
# [30] = second compound 10 µM, first compound 0.0316 µM
# [31] = second compound 10 µM, first compound 0.1 µM
# [32] = second compound 10 µM, first compound 0.316 µM
# [33] = second compound 10 µM, first compound 1 µM
# [34] = second compound 10 µM, first compound 3.16 µM
# [35] = second compound 10 µM, first compound 10 µM
# 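Also: luminescence taken as a proxy for viable cell amount.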
# 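For viability, T/C in this document: percent of DMSO vehicle control where 100% means growth equal to vehicle.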
SMILES,IC50 [1] [µM],IC50 [2] [µM],IC50 [3] [µM],IC50 [4] [µM],IC50 [5] [µM],"viability, T/C [6] [%]","viability, T/C [7] [%]","viability, T/C [8] [%]","viability, T/C [9] [%]","viability, T/C [10] [%]","viability, T/C [11] [%]","viability, T/C [12] [%]","viability, T/C [13] [%]","viability, T/C [14] [%]","viability, T/C [15] [%]","viability, T/C [16] [%]","viability, T/C [17] [%]","viability, T/C [18] [%]","viability, T/C [19] [%]","viability, T/C [20] [%]",also measured
O=C(c1cc(Cc2n[nH]c(=O)c3ccccc23)ccc1F)N1CCN(C(=O)C2CC2)CC1 + CC(CO)NC(=O)c1cc(-c2ccc(Cl)cc2)nn(-c2cnn(C)c2)c1=O,> 10,> 10,> 10,> 10,> 10,95.2,99.8,94.8,86.6,95.3,70.4,96.2,98.4,87.5,82.4,88.8,83.1,93,108,95.7,"viability, T/C [21]: 74.4%; viability, T/C [22]: 86.1%; viability, T/C [23]: 81%; viability, T/C [24]: 89.3%; viability, T/C [25]: 91%; viability, T/C [26]: 94.5%; viability, T/C [27]: 74.1%; viability, T/C [28]: 79%; viability, T/C [29]: 72%; viability, T/C [30]: 77.4%; viability, T/C [31]: 78.6%; viability, T/C [32]: 82.7%; viability, T/C [33]: 80%; viability, T/C [34]: 81.8%; viability, T/C [35]: 79.8%"
NS(=O)(=O)OCC1CC(n2ccc3c(NC4CCc5ccccc54)ncnc32)CC1O (stereo not drawn),,,,,,,,,,,,,,,,,,,,,"viability, T/C (compound 0.0316 µM): 94.3% and 100% and 101%; viability, T/C (compound 0.1 µM): 105% and 96.8% and 99.1%; viability, T/C (compound 0.316 µM): 107% and 102% and 97.8%; viability, T/C (compound 1 µM): 89.2% and 103% and 86.7%; viability, T/C (compound 3.16 µM): 65.2% and 76.8% and 62.9%; viability, T/C (compound 10 µM): 35.8% and 47% and 34.9%; IC50 (curve of compound): 5.66 µM and 8.9 µM and 5.36 µM"
O=C(c1cc(Cc2n[nH]c(=O)c3ccccc23)ccc1F)N1CCN(C(=O)C2CC2)CC1 + Cc1cncc(-c2nc(NCCc3c[nH]c4ccccc34)c3ncn(C(C)C)c3n2)c1,> 10,> 10,> 10,< 0.0316,< 0.0316,105,98.5,99.3,84.1,93.4,72.5,90.7,103,95,95.5,89.4,80.8,108,95.9,99.8,"viability, T/C [21]: 99.4%; viability, T/C [22]: 98.3%; viability, T/C [23]: 78.1%; viability, T/C [24]: 40.2%; viability, T/C [25]: 43.1%; viability, T/C [26]: 51.7%; viability, T/C [27]: 46.2%; viability, T/C [28]: 40%; viability, T/C [29]: 43%; viability, T/C [30]: 0.8%; viability, T/C [31]: 0.83%; viability, T/C [32]: 0.8%; viability, T/C [33]: 0.79%; viability, T/C [34]: 0.66%; viability, T/C [35]: 1.47%"
O=C(C=Cc1cccc(S(=O)(=O)Nc2ccccc2)c1)NO + CC(CO)NC(=O)c1cc(-c2ccc(Cl)cc2)nn(-c2cnn(C)c2)c1=O,0.607,0.636,0.667,0.69,0.727,106,112,77.3,28.5,7,1.6,105,101,77,32.4,7.34,1.04,102,106,77.8,"viability, T/C [21]: 34.6%; viability, T/C [22]: 8.18%; viability, T/C [23]: 1.73%; viability, T/C [24]: 105%; viability, T/C [25]: 108%; viability, T/C [26]: 74.4%; viability, T/C [27]: 39%; viability, T/C [28]: 7.73%; viability, T/C [29]: 1.63%; viability, T/C [30]: 101%; viability, T/C [31]: 121%; viability, T/C [32]: 81.8%; viability, T/C [33]: 37.6%; viability, T/C [34]: 8.76%; viability, T/C [35]: 1.23%"
CC(C)c1c(-c2ccccc2)nc2c(C#N)c[nH]n2c1=O,,,,,,,,,,,,,,,,,,,,,"viability, T/C (compound 0.0316 µM): 101% and 99.1% and 108%; viability, T/C (compound 0.1 µM): 96.1% and 98.3% and 103%; viability, T/C (compound 0.316 µM): 105% and 107% and 103%; viability, T/C (compound 1 µM): 87% and 102% and 104%; viability, T/C (compound 3.16 µM): 88.2% and 91.2% and 91.7%; viability, T/C (compound 10 µM): 99.6% and 90.7% and 93.6%; IC50 (curve of compound): > 10 µM"
COc1ccc([C@@H](O)c2cc(-c3ncnc4cc(N5CCOCC5)ccc34)c(F)cc2Cl)nn1 + CC(CO)NC(=O)c1cc(-c2ccc(Cl)cc2)nn(-c2cnn(C)c2)c1=O,3.65,4.79,5.26,3.18,2.91,88.9,89.9,93.5,76,53.5,31.7,94.2,95.8,81,74.5,64.5,30.5,97.4,95.1,88.1,"viability, T/C [21]: 83.8%; viability, T/C [22]: 61.6%; viability, T/C [23]: 34.4%; viability, T/C [24]: 93.1%; viability, T/C [25]: 86.4%; viability, T/C [26]: 88.1%; viability, T/C [27]: 68.3%; viability, T/C [28]: 51.2%; viability, T/C [29]: 32.1%; viability, T/C [30]: 78.5%; viability, T/C [31]: 88.3%; viability, T/C [32]: 77.1%; viability, T/C [33]: 69.5%; viability, T/C [34]: 48.5%; viability, T/C [35]: 33.4%"
COc1ccc([C@@H](O)c2cc(-c3ncnc4cc(N5CCOCC5)ccc34)c(F)cc2Cl)nn1,,,,,,,,,,,,,,,,,,,,,"viability, T/C (compound 0.0316 µM): 97% and 89.7% and 103%; viability, T/C (compound 0.1 µM): 94.4% and 103% and 102%; viability, T/C (compound 0.316 µM): 94.6% and 103% and 100%; viability, T/C (compound 1 µM): 93.6% and 93.9% and 90%; viability, T/C (compound 3.16 µM): 75.6% and 76.3% and 67.8%; viability, T/C (compound 10 µM): 26.7% and 26.9% and 26.5%; IC50 (curve of compound): 5.77 µM and 5.83 µM and 5.19 µM"
Nc1ccn(C2OC(CO)C(O)C2(F)F)c(=O)n1 (stereo not drawn) + Cc1ccccc1N=Nc1ccc(NC(=O)c2ccnn2C)c(C)c1,< 0.0316,< 0.0316,< 0.0316,< 0.0316,< 0.0316,40.4,34.1,31,31.8,31,28.1,35.8,36.6,30.5,32,31.9,22.6,37.6,33.7,34.1,"viability, T/C [21]: 31.4%; viability, T/C [22]: 29.5%; viability, T/C [23]: 22.1%; viability, T/C [24]: 30.8%; viability, T/C [25]: 38.2%; viability, T/C [26]: 31%; viability, T/C [27]: 27.8%; viability, T/C [28]: 24.6%; viability, T/C [29]: 24.5%; viability, T/C [30]: 39.3%; viability, T/C [31]: 36.5%; viability, T/C [32]: 37.5%; viability, T/C [33]: 37.8%; viability, T/C [34]: 36.9%; viability, T/C [35]: 26.2%"
NS(=O)(=O)OCC1CC(n2ccc3c(NC4CCc5ccccc54)ncnc32)CC1O (stereo not drawn) + Cc1ccccc1N=Nc1ccc(NC(=O)c2ccnn2C)c(C)c1,7.52,6.76,3.06,1.08,1.31,100,94.1,97.9,90.8,64.4,45.2,102,99.8,103,81.7,68.5,41,96,102,99,"viability, T/C [21]: 74.4%; viability, T/C [22]: 51.5%; viability, T/C [23]: 38.4%; viability, T/C [24]: 93.2%; viability, T/C [25]: 99.6%; viability, T/C [26]: 67%; viability, T/C [27]: 55.6%; viability, T/C [28]: 42.1%; viability, T/C [29]: 39.6%; viability, T/C [30]: 100%; viability, T/C [31]: 82.7%; viability, T/C [32]: 63.7%; viability, T/C [33]: 54.5%; viability, T/C [34]: 41.4%; viability, T/C [35]: 32%"
O=C(c1cc(Cc2n[nH]c(=O)c3ccccc23)ccc1F)N1CCN(C(=O)C2CC2)CC1,,,,,,,,,,,,,,,,,,,,,"viability, T/C (compound 0.0316 µM): 98.7% and 113% and 108%; viability, T/C (compound 0.1 µM): 106% and 89.2% and 102%; viability, T/C (compound 0.316 µM): 103% and 91.6% and 85.8%; viability, T/C (compound 1 µM): 99.9% and 95.1% and 114%; viability, T/C (compound 3.16 µM): 88.3% and 110% and 109%; viability, T/C (compound 10 µM): 74.2% and 90.4% and 94.5%; IC50 (curve of compound): > 10 µM"
